Among the targets are Vasopressin V2 receptor (Homo sapiens, UniProt P30518); Adenosine receptor A2a (Homo sapiens, UniProt P29274); Melanocortin receptor 3 (Homo sapiens, UniProt P41968); Histamine H1 receptor (Homo sapiens, UniProt P35367); Histamine H3 receptor (Homo sapiens, UniProt Q9Y5N1).
The target of experiment [1] is Gamma-aminobutyric acid receptor subunit alpha-1 (Rattus norvegicus, UniProt P62813). In kind it is functional.
Experiment [2] concerns the target Growth hormone secretagogue receptor type 1 (Homo sapiens, UniProt Q92847).
The next experiment deals with T1, Thromboxane A2 receptor (Homo sapiens, UniProt P21731).
T1 sequence (P21731 whole entry): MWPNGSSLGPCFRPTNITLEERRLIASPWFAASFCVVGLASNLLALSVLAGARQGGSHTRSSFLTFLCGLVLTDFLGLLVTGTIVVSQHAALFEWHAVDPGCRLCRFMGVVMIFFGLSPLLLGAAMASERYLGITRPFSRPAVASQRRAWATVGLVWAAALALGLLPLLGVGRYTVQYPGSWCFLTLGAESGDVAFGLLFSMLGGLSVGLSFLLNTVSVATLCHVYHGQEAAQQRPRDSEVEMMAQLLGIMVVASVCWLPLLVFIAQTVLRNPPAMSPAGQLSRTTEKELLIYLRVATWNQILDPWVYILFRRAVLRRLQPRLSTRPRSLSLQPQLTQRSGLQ

Experiment [3] has as its target T2, Alpha-2B adrenergic receptor (Homo sapiens, UniProt P18089).
T2 sequence (P18089 whole entry): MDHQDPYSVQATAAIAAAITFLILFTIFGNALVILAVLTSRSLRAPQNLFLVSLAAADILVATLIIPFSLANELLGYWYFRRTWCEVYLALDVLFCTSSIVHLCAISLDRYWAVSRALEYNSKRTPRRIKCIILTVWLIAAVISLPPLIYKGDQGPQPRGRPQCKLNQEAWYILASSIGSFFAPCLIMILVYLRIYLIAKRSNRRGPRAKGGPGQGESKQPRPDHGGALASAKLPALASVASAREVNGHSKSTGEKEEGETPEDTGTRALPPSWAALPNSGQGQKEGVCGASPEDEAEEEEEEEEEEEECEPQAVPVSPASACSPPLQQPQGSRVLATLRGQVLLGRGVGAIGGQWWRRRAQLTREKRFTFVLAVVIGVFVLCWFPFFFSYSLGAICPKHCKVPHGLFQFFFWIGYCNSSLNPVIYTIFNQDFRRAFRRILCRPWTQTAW

For experiment [4], the target named is Sodium-dependent noradrenaline transporter (Homo sapiens, UniProt P23975).
Sodium-dependent noradrenaline transporter, sequence (P23975 whole entry): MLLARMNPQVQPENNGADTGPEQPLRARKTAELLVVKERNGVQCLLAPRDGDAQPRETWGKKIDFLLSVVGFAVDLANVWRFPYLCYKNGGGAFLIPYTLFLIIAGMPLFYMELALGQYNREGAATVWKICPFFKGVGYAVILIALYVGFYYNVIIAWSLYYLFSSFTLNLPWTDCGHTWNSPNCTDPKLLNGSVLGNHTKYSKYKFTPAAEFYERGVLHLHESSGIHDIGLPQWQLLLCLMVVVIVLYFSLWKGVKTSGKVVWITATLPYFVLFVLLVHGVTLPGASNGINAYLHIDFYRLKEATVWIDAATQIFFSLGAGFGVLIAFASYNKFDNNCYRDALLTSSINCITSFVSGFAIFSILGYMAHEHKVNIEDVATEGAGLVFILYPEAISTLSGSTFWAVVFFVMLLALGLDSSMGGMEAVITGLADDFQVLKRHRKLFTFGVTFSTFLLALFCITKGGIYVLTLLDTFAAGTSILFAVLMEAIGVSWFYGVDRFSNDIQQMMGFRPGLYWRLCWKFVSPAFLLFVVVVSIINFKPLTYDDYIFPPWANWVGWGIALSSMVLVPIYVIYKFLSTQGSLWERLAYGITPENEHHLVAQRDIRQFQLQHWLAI
Experiment [5] deals with Voltage-dependent L-type calcium channel subunit alpha-1C (Rattus norvegicus, UniProt P22002). Type of experiment: functional.
Voltage-dependent L-type calcium channel subunit alpha-1C, sequence (P22002 whole entry): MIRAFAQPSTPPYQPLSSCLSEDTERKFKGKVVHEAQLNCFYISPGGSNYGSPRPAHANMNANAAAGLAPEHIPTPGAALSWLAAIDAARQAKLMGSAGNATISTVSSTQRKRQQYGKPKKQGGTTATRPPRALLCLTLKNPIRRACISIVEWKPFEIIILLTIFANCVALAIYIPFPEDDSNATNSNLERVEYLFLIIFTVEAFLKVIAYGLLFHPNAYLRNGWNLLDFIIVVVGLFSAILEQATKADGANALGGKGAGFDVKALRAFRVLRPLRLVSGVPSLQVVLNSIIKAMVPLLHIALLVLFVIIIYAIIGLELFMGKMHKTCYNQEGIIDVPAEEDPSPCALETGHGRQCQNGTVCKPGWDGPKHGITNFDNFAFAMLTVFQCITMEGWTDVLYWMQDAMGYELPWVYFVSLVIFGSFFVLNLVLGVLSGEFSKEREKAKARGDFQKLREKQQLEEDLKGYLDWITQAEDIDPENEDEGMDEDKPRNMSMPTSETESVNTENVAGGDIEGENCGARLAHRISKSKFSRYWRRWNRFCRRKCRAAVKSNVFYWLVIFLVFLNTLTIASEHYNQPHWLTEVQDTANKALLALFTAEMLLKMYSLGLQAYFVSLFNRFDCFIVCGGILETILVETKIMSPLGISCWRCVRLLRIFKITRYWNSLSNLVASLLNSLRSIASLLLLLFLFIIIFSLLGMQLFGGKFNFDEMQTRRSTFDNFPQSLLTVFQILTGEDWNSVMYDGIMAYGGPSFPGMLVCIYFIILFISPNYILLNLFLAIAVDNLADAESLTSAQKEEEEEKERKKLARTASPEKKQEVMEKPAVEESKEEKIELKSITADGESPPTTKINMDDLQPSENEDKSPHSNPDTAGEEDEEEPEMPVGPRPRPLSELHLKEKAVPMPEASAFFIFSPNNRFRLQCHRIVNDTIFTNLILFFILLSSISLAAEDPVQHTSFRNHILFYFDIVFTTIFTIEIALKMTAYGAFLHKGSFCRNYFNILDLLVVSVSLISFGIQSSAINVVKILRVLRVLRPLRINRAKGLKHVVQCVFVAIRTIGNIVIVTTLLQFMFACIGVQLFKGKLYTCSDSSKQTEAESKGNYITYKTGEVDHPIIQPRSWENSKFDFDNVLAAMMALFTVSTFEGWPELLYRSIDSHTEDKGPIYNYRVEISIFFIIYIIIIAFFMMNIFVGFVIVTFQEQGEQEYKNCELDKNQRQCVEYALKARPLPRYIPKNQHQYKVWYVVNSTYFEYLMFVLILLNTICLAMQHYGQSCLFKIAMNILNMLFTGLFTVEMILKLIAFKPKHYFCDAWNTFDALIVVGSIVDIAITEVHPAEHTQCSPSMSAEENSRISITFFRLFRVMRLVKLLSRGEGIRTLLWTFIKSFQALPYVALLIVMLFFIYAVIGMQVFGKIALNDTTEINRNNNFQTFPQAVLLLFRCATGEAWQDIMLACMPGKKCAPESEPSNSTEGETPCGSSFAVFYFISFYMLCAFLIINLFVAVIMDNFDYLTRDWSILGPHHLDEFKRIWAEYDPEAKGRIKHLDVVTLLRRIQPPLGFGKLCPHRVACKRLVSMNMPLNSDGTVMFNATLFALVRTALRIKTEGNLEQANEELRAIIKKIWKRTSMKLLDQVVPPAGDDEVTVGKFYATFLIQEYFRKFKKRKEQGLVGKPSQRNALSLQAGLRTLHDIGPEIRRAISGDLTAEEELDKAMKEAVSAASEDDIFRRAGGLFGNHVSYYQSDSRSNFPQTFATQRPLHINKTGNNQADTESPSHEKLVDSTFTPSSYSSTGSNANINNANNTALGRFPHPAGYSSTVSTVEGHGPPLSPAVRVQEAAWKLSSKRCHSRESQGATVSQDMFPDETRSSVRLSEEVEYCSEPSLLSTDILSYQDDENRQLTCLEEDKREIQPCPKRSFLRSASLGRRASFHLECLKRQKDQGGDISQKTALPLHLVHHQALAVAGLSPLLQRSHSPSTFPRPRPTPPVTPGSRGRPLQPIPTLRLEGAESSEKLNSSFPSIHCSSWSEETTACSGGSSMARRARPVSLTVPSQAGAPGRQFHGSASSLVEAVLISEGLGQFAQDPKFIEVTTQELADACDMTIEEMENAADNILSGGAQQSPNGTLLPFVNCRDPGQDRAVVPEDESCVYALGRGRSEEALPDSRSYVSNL
Experiment [6] has as its target T3, Neuropeptide Y receptor type 1 (Homo sapiens, UniProt P25929).
T3 sequence (P25929 whole entry): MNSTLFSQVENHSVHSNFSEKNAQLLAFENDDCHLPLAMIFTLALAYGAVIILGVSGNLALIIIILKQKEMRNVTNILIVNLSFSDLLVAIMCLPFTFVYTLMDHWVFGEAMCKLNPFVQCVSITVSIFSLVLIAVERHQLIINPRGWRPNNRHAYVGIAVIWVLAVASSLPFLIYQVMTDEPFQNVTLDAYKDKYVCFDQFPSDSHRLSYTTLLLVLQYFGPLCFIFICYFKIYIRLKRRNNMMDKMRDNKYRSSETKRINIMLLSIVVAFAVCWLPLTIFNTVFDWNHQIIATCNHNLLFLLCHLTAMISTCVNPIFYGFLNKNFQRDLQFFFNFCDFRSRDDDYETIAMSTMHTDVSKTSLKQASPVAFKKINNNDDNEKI
The conditions noted are these: read-out: AC50.

Experiment [7] addresses 3',5'-cyclic-AMP phosphodiesterase 4D (Homo sapiens, UniProt Q08499). In kind it is functional.
The target in experiment [8] is T4, 5-hydroxytryptamine receptor 1A (Homo sapiens, UniProt P08908).
T4 sequence (P08908 whole entry): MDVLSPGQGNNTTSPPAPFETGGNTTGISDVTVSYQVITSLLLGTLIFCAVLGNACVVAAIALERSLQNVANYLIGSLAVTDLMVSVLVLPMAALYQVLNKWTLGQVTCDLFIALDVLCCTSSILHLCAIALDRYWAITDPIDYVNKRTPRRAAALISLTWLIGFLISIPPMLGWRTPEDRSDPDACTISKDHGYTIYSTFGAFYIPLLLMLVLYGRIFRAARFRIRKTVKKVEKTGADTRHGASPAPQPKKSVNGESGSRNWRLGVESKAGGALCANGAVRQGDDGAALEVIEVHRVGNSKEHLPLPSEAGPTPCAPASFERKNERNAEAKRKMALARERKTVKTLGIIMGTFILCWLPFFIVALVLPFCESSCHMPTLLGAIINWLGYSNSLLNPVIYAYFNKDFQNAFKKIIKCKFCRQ
In kind it is functional, cell-based.

The target of experiment [9] is 5-hydroxytryptamine receptor 2B (Homo sapiens, UniProt P41595). Type of experiment: functional, cell-based.
5-hydroxytryptamine receptor 2B, sequence (P41595 whole entry): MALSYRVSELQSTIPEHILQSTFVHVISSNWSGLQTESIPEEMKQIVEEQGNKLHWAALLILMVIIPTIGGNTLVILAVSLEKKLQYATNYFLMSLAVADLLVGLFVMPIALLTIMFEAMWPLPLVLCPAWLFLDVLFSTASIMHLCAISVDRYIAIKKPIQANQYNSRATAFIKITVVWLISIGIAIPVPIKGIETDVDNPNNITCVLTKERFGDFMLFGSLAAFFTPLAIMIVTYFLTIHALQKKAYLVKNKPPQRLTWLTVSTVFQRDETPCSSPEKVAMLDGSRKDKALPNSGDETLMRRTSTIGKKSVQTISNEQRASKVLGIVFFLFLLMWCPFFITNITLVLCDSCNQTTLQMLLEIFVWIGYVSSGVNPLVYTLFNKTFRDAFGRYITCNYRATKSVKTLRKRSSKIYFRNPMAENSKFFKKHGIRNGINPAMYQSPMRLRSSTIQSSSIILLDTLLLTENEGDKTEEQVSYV
The target of experiment [10] is T5, Alpha-1A adrenergic receptor (Homo sapiens, UniProt P35348).
T5 sequence (P35348 whole entry): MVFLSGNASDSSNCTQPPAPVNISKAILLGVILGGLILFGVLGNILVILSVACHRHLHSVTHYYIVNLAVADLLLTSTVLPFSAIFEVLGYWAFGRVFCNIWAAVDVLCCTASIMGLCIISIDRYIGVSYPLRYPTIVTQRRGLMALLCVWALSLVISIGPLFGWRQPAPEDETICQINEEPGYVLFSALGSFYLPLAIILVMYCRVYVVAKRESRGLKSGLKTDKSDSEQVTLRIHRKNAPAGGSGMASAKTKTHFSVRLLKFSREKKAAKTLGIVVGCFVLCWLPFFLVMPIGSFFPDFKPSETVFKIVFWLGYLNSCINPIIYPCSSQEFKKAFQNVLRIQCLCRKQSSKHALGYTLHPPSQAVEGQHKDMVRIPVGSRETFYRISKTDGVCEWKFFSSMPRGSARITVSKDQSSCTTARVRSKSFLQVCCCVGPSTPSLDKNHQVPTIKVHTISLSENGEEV
In kind it is functional, cell-based.

Bounds are passed on as bounds.
Further: assay procedure not described here.

3',5'-cyclic-AMP phosphodiesterase 4D, sequence (Q08499 whole entry): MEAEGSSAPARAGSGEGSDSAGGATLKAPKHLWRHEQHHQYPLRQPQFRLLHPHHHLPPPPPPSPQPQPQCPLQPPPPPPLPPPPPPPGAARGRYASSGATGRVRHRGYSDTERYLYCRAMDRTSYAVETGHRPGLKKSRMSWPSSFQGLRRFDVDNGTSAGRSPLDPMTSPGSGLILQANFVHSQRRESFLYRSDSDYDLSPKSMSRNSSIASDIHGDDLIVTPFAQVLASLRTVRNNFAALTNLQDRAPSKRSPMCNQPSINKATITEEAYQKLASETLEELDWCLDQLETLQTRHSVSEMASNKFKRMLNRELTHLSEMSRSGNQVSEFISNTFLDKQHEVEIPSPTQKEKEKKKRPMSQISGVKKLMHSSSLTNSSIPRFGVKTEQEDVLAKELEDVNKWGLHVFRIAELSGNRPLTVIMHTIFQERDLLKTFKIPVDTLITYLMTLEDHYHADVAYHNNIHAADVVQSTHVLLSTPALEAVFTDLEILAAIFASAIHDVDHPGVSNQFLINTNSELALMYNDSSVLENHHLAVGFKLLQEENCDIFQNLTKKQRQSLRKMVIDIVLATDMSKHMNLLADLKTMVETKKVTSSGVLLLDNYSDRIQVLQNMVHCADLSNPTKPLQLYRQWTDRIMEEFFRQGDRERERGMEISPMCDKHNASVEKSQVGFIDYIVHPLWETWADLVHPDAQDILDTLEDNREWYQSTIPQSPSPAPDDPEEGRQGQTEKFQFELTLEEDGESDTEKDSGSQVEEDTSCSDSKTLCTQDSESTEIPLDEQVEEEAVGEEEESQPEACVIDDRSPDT
Histamine H3 receptor, sequence (Q9Y5N1 whole entry): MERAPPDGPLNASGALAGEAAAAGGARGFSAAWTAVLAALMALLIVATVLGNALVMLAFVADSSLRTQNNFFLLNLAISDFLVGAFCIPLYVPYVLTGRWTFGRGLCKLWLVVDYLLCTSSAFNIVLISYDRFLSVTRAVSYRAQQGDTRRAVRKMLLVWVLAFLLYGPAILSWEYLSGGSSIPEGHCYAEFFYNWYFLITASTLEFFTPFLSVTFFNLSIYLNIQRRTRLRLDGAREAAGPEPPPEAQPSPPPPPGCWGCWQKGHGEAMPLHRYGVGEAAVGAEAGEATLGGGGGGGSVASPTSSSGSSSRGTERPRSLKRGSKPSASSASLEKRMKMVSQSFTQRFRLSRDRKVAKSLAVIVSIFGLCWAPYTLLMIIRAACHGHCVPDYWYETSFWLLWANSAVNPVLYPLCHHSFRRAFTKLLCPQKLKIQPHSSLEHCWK
Vasopressin V2 receptor, sequence (P30518 whole entry): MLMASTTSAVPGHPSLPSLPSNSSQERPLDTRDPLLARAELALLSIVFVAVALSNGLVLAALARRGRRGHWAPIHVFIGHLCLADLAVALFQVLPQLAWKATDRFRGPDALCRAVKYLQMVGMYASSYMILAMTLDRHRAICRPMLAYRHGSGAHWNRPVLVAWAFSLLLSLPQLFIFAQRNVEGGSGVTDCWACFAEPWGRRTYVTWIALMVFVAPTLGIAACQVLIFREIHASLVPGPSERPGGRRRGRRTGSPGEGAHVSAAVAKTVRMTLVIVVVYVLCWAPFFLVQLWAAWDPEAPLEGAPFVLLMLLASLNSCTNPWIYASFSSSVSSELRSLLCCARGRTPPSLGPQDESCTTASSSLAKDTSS

In the case of `Cn1c(=O)cc(N2CCC[C@@H](N)C2)n(Cc2ccccc2C#N)c1=O` [ALOGLIPTIN], the AC50 – broadly, the midpoint of the concentration-response curve, whichever way the signal moves – is > 10 µM in experiment [1]; > 30 µM in [2]; > 30 µM on Thromboxane A2 receptor; > 30 µM on Vasopressin V2 receptor; > 30 µM at Adenosine receptor A2a; > 10 µM in [3]. In addition, the AC50 at Melanocortin receptor 3 was > 30 µM; at Histamine H1 receptor, > 10 µM; in experiment [4] it was > 10 µM; in [5], > 10 µM; in [6], > 30 µM; in experiment [7] it was > 30 µM. Moreover, the AC50 at Histamine H3 receptor was > 10 µM.

Consider `O=C1CN=C(c2ccccn2)c2cc(Br)ccc2N1` [BROMAZEPAM], for which the AC50 in experiment [1] was 0.11 µM; in experiment [2], > 10 µM; in [8], > 10 µM; at Thromboxane A2 receptor it was > 10 µM; on Vasopressin V2 receptor, > 10 µM; on Adenosine receptor A2a, > 10 µM. Further, the AC50 (in experiment [3]; on Melanocortin receptor 3; at Histamine H1 receptor; in [4]; in [5]; in experiment [6]) was > 10 µM throughout. Also, the results for the AC50 in [9] and in experiment [7] were > 10 µM and > 30 µM, respectively.

Take `Oc1ccc2c(c1)[C@@]13CCCC[C@@]1(O)[C@@H](C2)N(CC1CCC1)CC3` [BUTORPHANOL]: the AC50 (in experiment [1]; in [2]; in experiment [8]; at Vasopressin V2 receptor; at Adenosine receptor A2a; in [3]) was > 30 µM in each case. Also, the AC50 (on Melanocortin receptor 3; at Histamine H1 receptor; in experiment [4]; in experiment [6]; in experiment [10]; in experiment [9]) was > 30 µM in each case. Also, the AC50 (in experiment [7]; on Histamine H3 receptor) was > 30 µM each time.

On to `CC(=O)[C@@]1(O)CC[C@H]2[C@@H]3C=C(Cl)C4=CC(=O)[C@@H]5C[C@@H]5[C@]4(C)[C@H]3CC[C@@]21C` [CYPROTERONE], for which the AC50 (in experiment [1]; in [2]; in experiment [8]; at Thromboxane A2 receptor; at Vasopressin V2 receptor; on Adenosine receptor A2a) was > 10 µM each time. Moreover, the AC50 (in [3]; at Melanocortin receptor 3; at Histamine H1 receptor; in experiment [4]; in experiment [5]; in experiment [6]) was > 10 µM each time. The AC50 in experiment [9] and in experiment [7] was > 10 µM in each case.

For the molecule `COc1cc2c(cc1OC)C(CCc1ccc(Cl)cc1)N(C)CC2` (stereo not given) [METHOPHOLINE], the AC50 is > 10 µM in experiment [1]; > 30 µM in experiment [2]; > 10 µM in experiment [8]; > 30 µM on Thromboxane A2 receptor; > 30 µM at Vasopressin V2 receptor; > 30 µM on Adenosine receptor A2a. Further, the AC50 was > 10 µM in experiment [3]; > 30 µM at Melanocortin receptor 3; > 10 µM on Histamine H1 receptor; > 30 µM in [4]; > 10 µM in experiment [5]; > 30 µM in experiment [6]. The AC50 is > 10 µM in experiment [9], > 30 µM in [7] and > 30 µM at Histamine H3 receptor.

Turning to `C/C(=C\C(=O)OCCCCCCCCC(=O)O)C[C@@H]1OC[C@H](C[C@@H]2O[C@H]2[C@@H](C)[C@H](C)O)[C@@H](O)[C@H]1O` [MUPIROCIN], the AC50 (in [1]; in [2]; in [8]; at Thromboxane A2 receptor; at Vasopressin V2 receptor; on Adenosine receptor A2a) was > 10 µM in each case. Further, the AC50 in experiment [3] was > 10 µM; at Melanocortin receptor 3, > 10 µM; at Histamine H1 receptor it was > 10 µM; in [4], > 30 µM; in [5] it was > 10 µM; in [6] it was > 10 µM. The AC50 in [9] is > 10 µM; in experiment [7], > 30 µM; at Histamine H3 receptor, > 10 µM.

On to `C#CCOc1ccc(N)cc1C(=O)NCCCC` [PARSALMIDE], for which the AC50 (in [1]; in experiment [2]; in experiment [8]; on Thromboxane A2 receptor; at Vasopressin V2 receptor; on Adenosine receptor A2a) was > 30 µM each time. The AC50 (in experiment [3]; on Melanocortin receptor 3; at Histamine H1 receptor; in experiment [4]; in experiment [5]; in experiment [6]) was > 30 µM in each case. In addition, the AC50 (in experiment [9]; in [7]; on Histamine H3 receptor) was > 30 µM throughout.

With `OCc1cc(C(O)CNCCCCCCOCCCCc2ccccc2)ccc1O` (stereo not given) [SALMETEROL], the AC50 in experiment [1] is > 10 µM; in experiment [2] it was > 30 µM; in [8], 5.4 µM; at Thromboxane A2 receptor, > 30 µM; at Vasopressin V2 receptor it was > 30 µM; on Adenosine receptor A2a it was > 30 µM. Also, the AC50 was 13 µM in experiment [3]; > 30 µM on Melanocortin receptor 3; > 10 µM on Histamine H1 receptor; 4.3 µM in [4]; > 10 µM in experiment [5]; > 30 µM in [6]. Besides, the values for the AC50 (in experiment [9]; in experiment [7]; on Histamine H3 receptor) were > 10 µM, > 30 µM and > 10 µM, respectively.

As for `CC1=C(C)C(=O)C(C(CCCCCC(=O)O)c2ccccc2)=C(C)C1=O` (stereo not given) [SERATRODAST], the AC50 (in experiment [1]; in [2]; in [8]; at Vasopressin V2 receptor; on Adenosine receptor A2a; in experiment [3]) was > 30 µM throughout. In addition, the half-maximal activity concentration (AC50) (at Melanocortin receptor 3; on Histamine H1 receptor; in [4]; in experiment [5]; in experiment [6]; in [10]) was > 30 µM in each case. Also, the values for the AC50 (in [9]; in experiment [7]; at Histamine H3 receptor) were > 30 µM, 22 µM and > 30 µM, respectively.

The values above are taken from ChEMBL document CHEMBL5291721, “A preclinical secondary pharmacology resource illuminates target-adverse drug reaction associations of marketed drugs” (Nat Commun, 2023).
